pIC50: −log10 of the molar value.
What follows are compounds tested against T1, S1P2 (Homo sapiens, UniProt O95136) (assay: GLISA RhoA activation - antagonist assay). Details: 1 μM compound, CHO-S1P2-FL cells.
T1 construct: Flag; expressed in transfected cells; host or cells: Chinese hamster ovary (CHO) cells, doxycycline-inducible (CHO-S1P2-FL / CHO-S1PR2 FL)
Assay type: cell-based
Experimental: GLISA RhoA Activation—Antagonist Assay
GLISA assays were performed using RhoA (BK124) activation kit purchased from Cytoskeleton Inc., Denver, CO Doxycycline-inducible Flag-tag S1P2 expressing Chinese hamster ovary (CHO) cells (CHO-S1P2-FL) were seeded in a 6-well plate, 1.5×10^5 cells per well. Cells were stimulated with […] of Doxycycline to induce S1P2 expression in serum free IMDM media with 0.1% BSA/PBS. Following day, cells were stimulated with the compounds described herein (1 nM-10 μM) or 1 μM JTE-013 for 1 hour at 37° C. Following compound incubation, cells were washed with PBS×3 and induced with 100 nM […] for 5 min. […] Protein concentration was examined using GLISA—Precision Red Advanced Protein assay reagent as described in assay manual. Lysates were immobilized on GTP-bound capture plate and GLISA assay was performed based on manufacture recommendations as reported previously.

T1 sequence (O95136 whole entry, species assumed): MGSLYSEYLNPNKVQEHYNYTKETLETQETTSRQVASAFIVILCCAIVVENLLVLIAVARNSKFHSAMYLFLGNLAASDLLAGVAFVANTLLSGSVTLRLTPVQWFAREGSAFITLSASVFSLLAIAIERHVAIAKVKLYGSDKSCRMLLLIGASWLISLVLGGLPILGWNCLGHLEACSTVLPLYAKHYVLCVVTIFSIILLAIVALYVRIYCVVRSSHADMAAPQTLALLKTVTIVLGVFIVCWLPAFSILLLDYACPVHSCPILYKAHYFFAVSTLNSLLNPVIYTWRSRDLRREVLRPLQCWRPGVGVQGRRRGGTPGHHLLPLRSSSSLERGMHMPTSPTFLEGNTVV

inhibition at 1 µM [%]	SMILES
55	CC#Cc1ccc(=O)n(CC(=O)c2cc(C)n(Cc3ccccc3)c2C)c1 [Compound 26, 1-(2-(1-benzyl-2,5-dimethyl-1H-pyrrol-3-yl)-2-oxoethyl)-5-(prop-1-yn-1-yl)pyridin-2(1H)-one]
10	Cc1nnc(Cn2c(C)cc(C(=O)C(C)n3cc(Br)ccc3=O)c2C)o1 (centres unmarked) [Example 57, 5-Bromo-1-(1-(2,5-dimethyl-1-((5-methyl-1,3,4-oxadiazol-2-yl)methyl)-1H-pyrrol-3-yl)-1-oxopropan-2-yl)pyridin-2(1H)-one]
< 10	O=C(Cn1cc(Br)ccc1=O)N1CCC(Cc2ccc(F)cc2)C1 (centres unmarked) [Example 66, 5-Bromo-1-(2-(3-(4-fluorobenzyl)pyrrolidin-1-yl)-2-oxoethyl)pyridin-2(1H)-one]
30	Cc1cc(C(=O)C(C)n2cc(Br)ccc2=O)c(C)n1CC1CCCOC1 (centres unmarked) [Compound 11, 5-bromo-1-(1-(2,5-dimethyl-1-((tetrahydro-2H-pyran-3-yl)methyl)-1H-pyrrol-3-yl)-1-oxopropan-2-yl)pyridin-2(1H)-one]
11	Cc1ccc(Cn2c(C)cc(C(=O)C(C)n3cc(Br)ccc3=O)c2C)cc1 (centres unmarked) [Example 65, 5-Bromo-1-(1-(2,5-dimethyl-1-(4-methylbenzyl)-1H-pyrrol-3-yl)-1-oxopropan-2-yl)pyridin-2(1H)-one]
10	Cc1cc(C(=O)Cn2cc(C#N)ccc2=O)c(C)n1Cc1ccc2c(c1)OCO2 [Example 93, 1-(2-(1-(Benzo[d][1,3]dioxol-5-ylmethyl)-2,5-dimethyl-1H-pyrrol-3-yl)-2-oxoethyl)-6-oxo-1,6-dihydropyridine-3-carbonitrile]
39	Cc1cc(C(=O)C(C)n2cc(Br)ccc2=O)c(C)n1Cc1ccncc1 (centres unmarked) [Compound 25, 5-bromo-1-(1-(2,5-dimethyl-1-(pyridin-4-ylmethyl)-1H-pyrrol-3-yl)-1-oxopropan-2-yl)pyridin-2(1H)-one]
18	Cc1cc(C(=O)Cn2cc(Br)ccc2=O)nn1Cc1ccc(F)cc1 [Example 68, 5-Bromo-1-(2-(1-(4-fluorobenzyl)-5-methyl-1H-pyrazol-3-yl)-2-oxoethyl)pyridin-2(1H)-one]
41	Cc1cc(C(=O)C(C)n2cc(Br)ccc2=O)c(C)n1Cc1ccn(C)n1 (centres unmarked) [Compound 12, 5-bromo-1-(1-(2,5-dimethyl-1-((1-methyl-1H-pyrazol-3-yl)methyl)-1H-pyrrol-3-yl)-1-oxopropan-2-yl)pyridin-2(1H)-one]
< 10	COc1cccc(Cn2c(C)cc(C(=O)C(C)n3cc(Br)ccc3=O)c2C)c1 (centres unmarked) [Example 60, 5-Bromo-1-(1-(1-(3-methoxybenzyl)-2,5-dimethyl-1H-pyrrol-3-yl)-1-oxopropan-2-yl)pyridin-2(1H)-one]
20	Cc1cc(C(=O)C(C)n2cc(Br)ccc2=O)c(C)n1Cc1cnn(C)c1 (centres unmarked) [Compound 8, 5-bromo-1-(1-(2,5-dimethyl-1-((1-methyl-1H-pyrazol-4-yl)methyl)-1H-pyrrol-3-yl)-1-oxopropan-2-yl)pyridin-2(1H)-one]
31	Cc1cc(C(=O)Cn2cc(C#N)ccc2=O)c(C)n1C(C)c1ccccc1 (centres unmarked) [Example 92, 1-(2-(2,5-Dimethyl-1-(1-phenylethyl)-1H-pyrrol-3-yl)-2-oxoethyl)-6-oxo-1,6-dihydropyridine-3-carbonitrile]
< 10	COC(=O)c1ccc(=O)n(CC(=O)c2cc(C)n(Cc3ccccc3)c2C)c1 [Example 90]
46	Cc1cc(C(=O)C(C)n2cc(Br)ccc2=O)c(C)n1Cc1ccc(F)c(F)c1 (centres unmarked) [Compound 20, 5-bromo-1-(1-(1-(3,4-difluorobenzyl)-2,5-dimethyl-1H-pyrrol-3-yl)-1-oxopropan-2-yl)pyridn-2(1H)-one]
< 10	Cc1ccccc1Cn1c(C)cc(C(=O)C(C)n2cc(Br)ccc2=O)c1C (centres unmarked) [Example 64, 5-Bromo-1-(1-(2,5-dimethyl-1-(2-methylbenzyl)-1H-pyrrol-3-yl)-1-oxopropan-2-yl)pyridin-2(1H)-one]
64	Cc1nc(C(=O)Cn2cc(Br)ccc2=O)c(C)n1Cc1ccc(F)cc1 [Compound 30, 5-bromo-1-(2-(1-(4-fluorobenzyl)-2,5-dimethyl-1H-imidazol-4-yl)-2-oxoethyl)pyridin-2(1H)-one]
29	Cc1noc(Cn2c(C)cc(C(=O)C(C)n3cc(Br)ccc3=O)c2C)n1 (centres unmarked) [Compound 6, 5-bromo-1-(1-(2,5-dimethyl-1-((3-methyl-1,2,4-oxadiazol-5-yl)methyl)-1H-pyrrol-3-yl)-1-oxopropan-2-yl)pyridin-2(1H)-one]
32	Cc1cc(Cn2c(C)cc(C(=O)C(C)n3cc(Br)ccc3=O)c2C)no1 (centres unmarked) [Compound 9, 5-bromo-1-(1-(2,5-dimethyl-1-((5-methylisoxazol-3-yl)methyl)-1H-pyrrol-3-yl)-1-oxopropan-2-yl)pyridin-2(1H)-one]

Same assay, conditions: CHO-S1P2-FL cells, 1 hour compound incubation, then for 5 min

pIC50	SMILES
< 5.00	Cc1cc(C(=O)Cn2cc(C(=O)O)ccc2=O)c(C)n1Cc1ccccc1 [Example 46, 1-(2-(1-Benzyl-2,5-dimethyl-1H-pyrrol-3-yl)-2-oxoethyl)-6-oxo-1,6-dihydropyridine-3-carboxylic Acid]
7.04	Cc1c(C(=O)Cn2cc(Br)c(F)cc2=O)cnn1Cc1ccccc1 [Example 72, 1-(2-(1-Benzyl-5-methyl-1H-pyrazol-4-yl)-2-oxoethyl)-5-bromo-4-fluoropyridin-2(1H)-one]
6.71	CC#Cc1ccc(=O)n(CC(=O)c2cc(C)n(Cc3ccccc3)c2C)c1 [Compound 26, 1-(2-(1-benzyl-2,5-dimethyl-1H-pyrrol-3-yl)-2-oxoethyl)-5-(prop-1-yn-1-yl)pyridin-2(1H)-one]
7.04	C=Cc1ccc(=O)n(CC(=O)c2c(C)nn(Cc3ccccc3)c2C)c1 [Example 86, 1-(2-(1-Benzyl-3,5-dimethyl-1H-pyrazol-4-yl)-2-oxoethyl)-5-vinylpyridin-2(1H)-one]
< 5.00	Cc1cc(C(=O)C(Cc2ccc(-c3ccccc3)cc2)n2cc(C#N)ccc2=O)c(C)[nH]1 (centres unmarked) [Example 48, 1-(3-((1,1′-Biphenyl)-4-yl)-1-(2,5-dimethyl-1H-pyrrol-3-yl)-1-oxopropan-2-yl)-6-oxo-1,6-dihydropyridine-3-carbonitrile]
< 5.00	COc1ccc(=O)n(CC(=O)c2cc(C)n(Cc3ccccc3)c2C)c1 [Example 50, 1-(2-(1-Benzyl-2,5-dimethyl-1H-pyrrol-3-yl)-2-oxoethyl)-5-methoxypyridin-2(1H)-one]
< 5.00	Cc1cc(C(=O)C(Cc2ccccc2)n2cc(C#N)ccc2=O)c(C)n1Cc1ccccc1 (centres unmarked) [Example 51, 1-(1-(1-Benzyl-2,5-dimethyl-1H-pyrrol-3-yl)-1-oxo-3-phenylpropan-2-yl)-6-oxo-1,6-dihydropyridine-3-carbonitrile]
7.30	C=Cc1ccc(=O)n(C(C)C(=O)c2cnn(Cc3ccccn3)c2C)c1 (centres unmarked) [Example 79, 1-(1-(5-Methyl-1-(pyridin-2-ylmethyl)-1H-pyrazol-4-yl)-1-oxopropan-2-yl)-5-vinylpyridin-2(1H)-one]
6.97	C=Cc1ccc(=O)n(CC(=O)c2cnn(Cc3ccccc3)c2CC)c1 [Example 85, 1-(2-(1-Benzyl-5-ethyl-1H-pyrazol-4-yl)-2-oxoethyl)-5-vinylpyridin-2(1H)-one]
< 5.00	Cc1cc(C(=O)Cn2c(C)c(C#N)ccc2=O)c(C)n1Cc1ccccc1 [Example 44, 1-(2-(1-Benzyl-2,5-dimethyl-1H-pyrrol-3-yl)-2-oxoethyl)-2-methyl-6-oxo-1,6-dihydropyridine-3-carbonitrile]
6.70	Cc1c(C(=O)Cn2cc(Br)cnc2=O)cnn1Cc1ccccc1 [Example 56, 1-(2-(1-Benzyl-5-methyl-1H-pyrazol-4-yl)-2-oxoethyl)-5-bromopyrimidin-2(1H)-one]
6.97	C=Cc1ccc(=O)n(CC(=O)c2cnn(Cc3ccccc3)c2C(F)F)c1 [Example 87, 1-(2-(1-Benzyl-5-(difluoromethyl)-1H-pyrazol-4-yl)-2-oxoethyl)-5-vinylpyridin-2(1H)-one]
7.30	Cc1c(C(=O)Cn2cc(C#N)cc(C#N)c2=O)cnn1Cc1ccccc1 [Example 69, 1-(2-(1-Benzyl-5-methyl-1H-pyrazol-4-yl)-2-oxoethyl)-2-oxo-1,2-dihydropyridine-3,5-dicarbonitrile]
7.00	C#Cc1ccc(=O)n(C(C)C(=O)c2cnn(Cc3ccccn3)c2C)c1 (centres unmarked) [Example 77]
7.34	C#Cc1ccc(=O)n(C(C)C(=O)c2cnn(Cc3ccc(F)cc3)c2C)n1 (centres unmarked) [Example 74, 6-Ethynyl-2-(1-(1-(4-fluorobenzyl)-5-methyl-1H-pyrazol-4-yl)-1-oxopropan-2-yl)pyridazin-3(2H)-one]
6.96	Cc1c(C(=O)Cn2nc(Br)ccc2=O)cnn1Cc1ccccc1 [Example 55, 2-(2-(1-Benzyl-5-methyl-1H-pyrazol-4-yl)-2-oxoethyl)-6-bromopyridazin-3(2H)-one]
< 5.00	Cc1cc(C(=O)C(C)n2cc(C#N)ccc2=O)c(C)n1Cc1ccccc1 (centres unmarked) [Example 52, 1-(1-(1-Benzyl-2,5-dimethyl-1H-pyrrol-3-yl)-1-oxopropan-2-yl)-6-oxo-1,6-dihydropyridine-3-carbonitrile]
6.23	Cc1nc(C(=O)Cn2cc(Br)ccc2=O)c(C)n1Cc1ccc(F)cc1 [Compound 30, 5-bromo-1-(2-(1-(4-fluorobenzyl)-2,5-dimethyl-1H-imidazol-4-yl)-2-oxoethyl)pyridin-2(1H)-one]
7.01	C=Cc1ccc(=O)n(CC(=O)c2cnn(Cc3ccccn3)c2CC)c1 [Example 80, 1-(2-(5-Ethyl-1-(pyridin-2-ylmethyl)-1H-pyrazol-4-yl)-2-oxoethyl)-5-vinylpyridin-2(1H)-one]
< 5.00	CC(=O)Nc1ccc(=O)n(CC(=O)c2cc(C)n(Cc3ccccc3)c2C)c1 [Example 54, N-(1-(2-(1-Benzyl-2,5-dimethyl-1H-pyrrol-3-0)-2-oxoethyl)-6-oxo-1,6-dihydropyridin-3-yl)acetamide]
